How the values were obtained:
Format in all cases: ADME, organism-based
[1] = Plasma clearance in rat; conditions: read-out: Clp
[2] = Volume distribution in rat; conditions: in vivo
[3] = Half-life in rat; conditions: in vivo
[4] = Oral bioavailability in rat; conditions: in vivo
[5] = Area under curve was determined in rat after PO administration; parameters: concentration or dose not given beside the values; conditions: in vivo

Structure (SMILES) | clearance [1] [mL/min/kg] | Vd [2] [L/kg] | half-life [3] [h] | bioavailability [4] [%] | AUC [5] [µM·h]
O=C1NCc2c(-c3ccc(F)cc3Cl)cc(C3CCN(CC4CCC4)CC3)cc2N1c1c(Cl)cccc1Cl | 24.2 | 2.5 | 1.6 | 11.6 | 0.14
CC(C)(C)N1CCC(c2cc(-c3ccc(F)cc3Cl)c3c(c2)N(c2c(Cl)cccc2Cl)C(=O)NC3)CC1 | 35.2 | 6 | 2.2 | 67.7 | 0.58
CC(C1CC1)N1CCC(c2cc(-c3ccc(F)cc3Cl)c3c(c2)N(c2c(Cl)cccc2Cl)C(=O)NC3)CC1 (configuration not stated) | 31.1 | 4.7 | 2 | 38 | 0.36
O=C1NCc2c(-c3ccc(F)cc3F)cc(C3CCNCC3)cc2N1c1c(Cl)cccc1Cl | 58.6 | 13.6 | 3.3 | 4.3 | 0.02
O=C(c1cc(-c2ccc(F)cc2F)c2c(c1)N(c1c(Cl)cccc1Cl)C(=O)NC2)N1CCNCC1 | 94.7 | 12.8 | 2.3 | 1.5 | –
O=C1NCc2c(-c3ccc(F)cc3Cl)cc(CN3CCNCC3)cc2N1c1c(Cl)cccc1Cl | 140 | 18.6 | 2.8 | 15.7 | 0.04
CC(C)N1CCC(c2cc(-c3ccc(F)cc3Cl)c3c(c2)N(c2c(Cl)cccc2Cl)C(=O)NC3)CC1 | 84.8 | 12.2 | 1.9 | 16 | 0.06
O=C1NCc2c(-c3ccc(F)cc3Cl)cc(C3CCNCC3)cc2N1c1c(Cl)cccc1Cl | 72.3 | 7.8 | 2 | 0 | –
O=C1NCc2c(-c3ccc(F)cc3Cl)cc(C3CCN(CC4CC4)CC3)cc2N1c1c(Cl)cccc1Cl | 50.9 | 6.3 | 1.9 | 22.6 | 0.15
O=C1NCc2c(-c3ccc(F)cc3Cl)cc(C3CCN(C4CCC4)CC3)cc2N1c1c(Cl)cccc1Cl | 53.7 | 6.6 | 1.7 | 24.7 | 0.14
O=C1NCc2c(-c3ccccc3Cl)cc(OC3CCNCC3)cc2N1c1c(Cl)cccc1Cl | 116 | 21 | 3 | 6.3 | 0.02
CCN1CCC(c2cc(-c3ccc(F)cc3Cl)c3c(c2)N(c2c(Cl)cccc2Cl)C(=O)NC3)CC1 | 56.3 | 7.5 | 2.2 | 20 | 0.11
O=C1NCc2c(-c3ccccc3Cl)cc(N3CCNCC3)cc2N1c1c(Cl)cccc1Cl | 34.4 | 4.3 | 1.6 | 22.7 | 0.22
O=C1NCc2c(-c3ccc(F)cc3Cl)cc(C3CCN(C4CC4)CC3)cc2N1c1c(Cl)cccc1Cl | 51.7 | 8.1 | 2.5 | 59.3 | 0.39
CN1CCC(c2cc(-c3ccc(F)cc3Cl)c3c(c2)N(c2c(Cl)cccc2Cl)C(=O)NC3)CC1 | 49.8 | 5.3 | 1.5 | 9.2 | 0.06
O=C1NCc2c(-c3ccccc3Cl)cc(C3CCNCC3)cc2N1c1c(Cl)cccc1Cl | 181 | 21.4 | 2.5 | 0 | –

— ChEMBL document CHEMBL1136271, “Design and synthesis of potent, orally bioavailable dihydroquinazolinone inhibitors of p38 MAP kinase” (Bioorg Med Chem Lett, 2003)
